Values of other authors as cited in paper PMC10010643 (Cancer Chemotherapy and Pharmacology, 2023).

Assays:
galectin-3 [1] = system: galectin-3; design: method as in PMID 33214209; details: inhaled; cited from earlier work
galectin-3 [2] = details: cited from earlier work
[3] = design: method as in PMID 36154172; details: cited from earlier work

SMILES: OC[C@H]1O[C@@H](S[C@@H]2O[C@H](CO)[C@H](O)[C@H](n3cc(-c4cccc(F)c4)nn3)[C@H]2O)[C@H](O)[C@@H](n2cc(-c3cccc(F)c3)nn2)[C@H]1O [GB0139]
- Galectin-3 expression (galectin-3 [1]): suppressed galectin-3 expression
- Plasma biomarkers associated with IPF disease progression (galectin-3 [1]): decreased plasma biomarkers associated with IPF disease progression
- Binding affinity for galectin-3 (galectin-3 [2]): high binding affinity
- Elimination if administered systemically [3]: prompt elimination
- Intestinal absorption [3]: poor intestinal absorption
